Measured values: US9833497B2, “Human originated EGF domain proteins and use of the same” (CHENGDU SOURCEBIO LIMITED-LIABILITY COMPANY, priority 2013, dated 2017)

Key:
Type in all cases: cell-based
Serratia marcescens = experiment: MIC against Gram-negative bacteria: Serratia marcescens; conditions: 5×10^5 CFU/mL; for MIC against S. marcescens: Serratia marcescens
Outline: (§1)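 Bacteria grown in LB at 37° C with shaking to McFarland 0.5, pelleted and resuspended in fresh LB, then seeded at 5×10^5 CFU/mL per well. Purified recombinant human EGF domain proteins were two-fold serially diluted in triplicate and plates shaken at 37° C, 175 rpm. MIC is the lowest protein concentration with no bacterial growth.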

Proteus vulgaris = experiment: MIC against Gram-negative bacteria: Proteus vulgaris; conditions: 5×10^5 CFU/mL; for MIC against P. vulgaris: Proteus vulgaris
Outline: as §1

Pseudomonas aeruginosa = experiment: MIC against Gram-negative bacteria: Pseudomonas aeruginosa; conditions: 5×10^5 CFU/mL; for MIC against P. aeruginosa: Pseudomonas aeruginosa
Outline: as §1

Moraxella catarrhalis = experiment: MIC against Gram-negative bacteria: Moraxella catarrhalis; conditions: 5×10^5 CFU/mL; for MIC against M. catarrhalis: Moraxella catarrhalis
Outline: as §1

E. coli DH5α = experiment: Antibacterial activity: MIC and growth curve against E. coli DH5α in 96-well plate; conditions: minimal inhibitory concentration against E. coli DH5α; 96-well plate, 5×10^5 CFU/mL, 37° C., judged after 8 h
Outline: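 MIC taken as lowest protein level with no bacterial growth, tracked by A600 every 30 min during 37 °C, 175 rpm culture. Two-fold protein series 50-12.5 μg/mL final, triplicate wells, against 5×10^5 CFU/mL of LB-washed mid-log cells.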

Aeromonas hydrophila = experiment: MIC against Gram-negative bacteria: Aeromonas hydrophila; conditions: 5×10^5 CFU/mL; for MIC against A. hydrophila: Aeromonas hydrophila
Outline: as §1

Enterobacter cloacae = experiment: MIC against Gram-negative bacteria: Enterobacter cloacae; conditions: 5×10^5 CFU/mL; for MIC against E. cloacae: Enterobacter cloacae
Outline: as §1

Klebsiella pneumonia = experiment: MIC against Gram-negative bacteria: Klebsiella pneumonia; conditions: 5×10^5 CFU/mL; for MIC against K. pneumonia: Klebsiella pneumonia
Outline: as §1

E. coli BL21 = experiment: MIC against Gram-negative bacteria: E. coli BL21; conditions: 5×10^5 CFU/mL
Outline: as §1

Citrobacter diversus = experiment: MIC against Gram-negative bacteria: Citrobacter diversus; conditions: 5×10^5 CFU/mL; for MIC against C. diversus: Citrobacter diversus
Outline: as §1

Proteus mirabilis = experiment: MIC against Gram-negative bacteria: Proteus mirabilis; conditions: 5×10^5 CFU/mL; for MIC against P. mirabilis: Proteus mirabilis
Outline: as §1

Substance	MIC (E. coli DH5α)	MIC (μg/mL) S. marcescens (Serratia marcescens; 10 h cultivation at 37° C.)	MIC (μg/mL) P. vulgaris (Proteus vulgaris; 10 h cultivation at 37° C.)	MIC (μg/mL) P. aeruginosa (Pseudomonas aeruginosa; 10 h cultivation at 37° C.)	MIC (μg/mL) M. catarrhalis (Moraxella catarrhalis; 10 h cultivation at 37° C.)	MIC (μg/mL) A. hydrophila (Aeromonas hydrophila; 10 h cultivation at 37° C.)	MIC (μg/mL) E. cloacae (Enterobacter cloacae; 10 h cultivation at 37° C.)	MIC (μg/mL) K. pneumonia (Klebsiella pneumonia; 10 h cultivation at 37° C.)	MIC (μg/mL) E. coli BL21 (E. coli BL21; 10 h cultivation at 37° C.)	MIC (μg/mL) C. diversus (Citrobacter diversus; 10 h cultivation at 37° C.)	MIC (μg/mL) P. mirabilis (Proteus mirabilis; 10 h cultivation at 37° C.)	further results
PRT633 (TKPSCVPPCQNGGMCLRPQLCVCKPGTKGKACE; listed as Homo sapiens)	12.5 µg/mL	–	–	–	–	–	–	–	–	–	–	MIC S. marcescens (Serratia marcescens; 96-well plate, 37° C., 10 h): 25 µg/mL; MIC P. vulgaris (Proteus vulgaris; 96-well plate, 37° C., 10 h): 50 µg/mL; MIC P. aeruginosa (Pseudomonas aeruginosa; 96-well plate, 37° C., 10 h): 12.5 µg/mL; MIC M. catarrhalis (Moraxella catarrhalis; 96-well plate, 37° C., 10 h): 50 µg/mL; MIC A. hydrophila (Aeromonas hydrophila; 96-well plate, 37° C., 10 h): 50 µg/mL; MIC E. cloacae (Enterobacter cloacae; 96-well plate, 37° C., 10 h): 12.5 µg/mL; MIC K. pneumonia (Klebsiella pneumonia; 96-well plate, 37° C., 10 h): 50 µg/mL; MIC E. coli BL21 (E. coli BL21; 96-well plate, 37° C., 10 h): 50 µg/mL; MIC C. diversus (Citrobacter diversus; 96-well plate, 37° C., 10 h): 12.5 µg/mL; MIC P. mirabilis (Proteus mirabilis; 96-well plate, 37° C., 10 h): 12.5 µg/mL
PRT1449 (ACAPGHFGADCRLQCQCQNGGTCDRFSGCVCPSGWHGVHCE; listed as Homo sapiens)	50 µg/mL	–	–	–	–	–	–	–	–	–	–	MIC against S. marcescens (Serratia marcescens; 10 h cultivation at 37° C.): 50 µg/mL; MIC against P. vulgaris (Proteus vulgaris; 10 h cultivation at 37° C.): 12.5 µg/mL; MIC against P. aeruginosa (Pseudomonas aeruginosa; 10 h cultivation at 37° C.): 12.5 µg/mL; MIC against M. catarrhalis (Moraxella catarrhalis; 10 h cultivation at 37° C.): 12.5 µg/mL; MIC against A. hydrophila (Aeromonas hydrophila; 10 h cultivation at 37° C.): 25 µg/mL; MIC against E. cloacae (Enterobacter cloacae; 10 h cultivation at 37° C.): 12.5 µg/mL; MIC against K. pneumonia (Klebsiella pneumonia; 10 h cultivation at 37° C.): 50 µg/mL; MIC against E. coli BL21 (E. coli BL21; 10 h cultivation at 37° C.): 25 µg/mL; MIC against C. diversus (Citrobacter diversus; 10 h cultivation at 37° C.): 50 µg/mL; MIC against P. mirabilis (Proteus mirabilis; 10 h cultivation at 37° C.): 50 µg/mL
PRT846 (CNCSVVGSLNVNRCNQTTGQCECRPGYQGLHCETCKEGFYLNYTSGLCQP; listed as Homo sapiens)	25 µg/mL	12.5 µg/mL	12.5 µg/mL	25 µg/mL	12.5 µg/mL	12.5 µg/mL	12.5 µg/mL	50 µg/mL	12.5 µg/mL	12.5 µg/mL	12.5 µg/mL	–
PRT878 (ADPLCAPARNPCANGGLCTVLAPGEVGCDCSHTGFGGKFCS; listed as Homo sapiens)	50 µg/mL	12.5 µg/mL	25 µg/mL	12.5 µg/mL	25 µg/mL	50 µg/mL	12.5 µg/mL	50 µg/mL	25 µg/mL	12.5 µg/mL	50 µg/mL	–
PRT1304 (ARDPCLGHRCHHGKCVATGTSYMCKCAEGYGGDLCD; listed as Homo sapiens)	25 µg/mL	–	–	–	–	–	–	–	–	–	–	MIC against S. marcescens (Serratia marcescens; 96-well plate, 37° C., 10 h): 12.5 µg/mL; MIC against P. vulgaris (Proteus vulgaris; 96-well plate, 37° C., 10 h): 25 µg/mL; MIC against P. aeruginosa (Pseudomonas aeruginosa; 96-well plate, 37° C., 10 h): 25 µg/mL; MIC against M. catarrhalis (Moraxella catarrhalis; 96-well plate, 37° C., 10 h): 25 µg/mL; MIC against A. hydrophila (Aeromonas hydrophila; 96-well plate, 37° C., 10 h): 25 µg/mL; MIC against E. cloacae (Enterobacter cloacae; 96-well plate, 37° C., 10 h): 12.5 µg/mL; MIC against K. pneumonia (Klebsiella pneumonia; 96-well plate, 37° C., 10 h): 12.5 µg/mL; MIC against E. coli BL21 (E. coli BL21; 96-well plate, 37° C., 10 h): 12.5 µg/mL; MIC against C. diversus (Citrobacter diversus; 96-well plate, 37° C., 10 h): 12.5 µg/mL; MIC against P. mirabilis (Proteus mirabilis; 96-well plate, 37° C., 10 h): 12.5 µg/mL
PRT747 (DIDECKDPDACSQICVNYKGYFKCECYPGYEMDLLTKNCK; listed as Homo sapiens)	50 µg/mL	12.5 µg/mL	25 µg/mL	12.5 µg/mL	12.5 µg/mL	12.5 µg/mL	12.5 µg/mL	12.5 µg/mL	50 µg/mL	50 µg/mL	50 µg/mL	–
